Source: patent US20100086519A1, “Treatment of Hepatitis C Infection With Metalloporphyrins” (The Charlotte-Mecklenburg Hospital Authority d/b/a …, priority 2008, published 2010)
Read-outs that look alike come from different tables or passages of the source.

Assays:
HCV replicon RNA = test: HCV RNA by qRT-PCR in Con1 full-length HCV replicon Huh-7.5 cells; type: cell-based, hepatitis C virus; conditions: different concentrations, 24 hours, FIG. 7A
Protocol: (§1) Bartenschlager (University of Heidelberg, Heidelberg, Germany).
(§2) Total RNA from treated cells was extracted and cDNA was synthesized as described in Hou et al. Real time quantitative RT-PCR was performed using a MyiQ™ Single Color Real-Time PCR Detection System from Bio-Rad (Hercules, Calif.) and iQ™ SYBR Green Supermix Real-Time PCR kit (Bio-Rad). Samples without template and without reverse transcriptase were included as negative controls, which, as expected, produced negligible signals (Ct values>35). Fold-change values were calculated by comparative Ct analysis after normalizing for the quantity of GAPDH in the same samples.
(§3) Total RNA and proteins were extracted.

HCV core, NS5A = test: HCV protein levels by Western blot in Con1 cells, 24 hours; type: cell-based, hepatitis C virus; conditions: different concentrations, FIG. 7B
Description: as §1
(§4) Biochim Biophys Acta 2008; 1779:195-203.
as §3

J6/JFH1 HCV RNA = test: HCV RNA by qRT-PCR in Huh-7.5 cells transfected with J6/JFH1 RNA; type: cell-based, hepatitis C virus; conditions: 10 μM, FIG. 8E
Protocol: (§5) Rice (the Rockefeller University, New York, N.Y.).
as §2

J6/JFH1 HCV = test: HCV RNA by qRT-PCR in Huh-7.5 cells infected with J6/JFH1 HCV; type: cell-based, hepatitis C virus; conditions: 10 μM, FIG. 8F
Protocol: as §5, §2

HCV = test: anti-viral activity (summary statement); type: cell-based, hepatitis C virus
HCV core protein [1] = conditions: CNS3 cells, 0, 1, 5, 10 μM, 4 hours, FIG. 1C
Protocol: 9-13 cells, containing a replicating HCV nonstructural region, stably express HCV NS3 to NS5B. CNS3 cells stably express HCV core to NS3 (amino acid residues 1 through 1233 of the Con1 isolate; Gene Bank accession number AJ238799). Huh-7/T7 cells constitutively express the bacteriophage T7 RNA polymerase. The cells were maintained in DMEM supplemented with 10% (v/v) FBS and 500 μg/mL G418 for 9-13 cells, 10 μg/mL zeocin for CNS3 cells or 5 μg/mL zeocin for Huh-7/T7 cells. […] The Con1 cell line is a Huh-7.5 cell population containing the full-length HCV genotype 1b replicon with the highly adaptive serine to isoleucine substitution at amino acid 2204 of the polypeptide. […]
In brief, total proteins (30-50 μg) were separated on 4-15% gradient SDS-PAGE gels. […] Data are expressed as percentages of the controls (corresponding to the value obtained with the vehicle-treated cells), which were assigned values of one.
NS5A protein levels in 9-13 and Con1 cells, core protein levels in CNS3 cells, and NS5A and core protein levels in Huh-7/T7 cells transfected with pFK-Con1/GND (a plasmid encoding a replication deficient variant of Con1) exposed to different concentrations of ZnMP (0, 1, 5, 10 μM) for 4 hours were evaluated. […]

HCV core protein [2] = conditions: Huh-7/T7 cells, pFK-Con1/GDD, FIG. 7D; much less than in Con1 replicon system
Protocol: In brief, total proteins (30-50 μg) were separated on 4-15% gradient SDS-PAGE gels. After electrophoretic transfer onto ImmunBlot PVDF membrane, membranes were blocked for 1 hour in PBS containing 5% nonfat dry milk and 0.1% Tween-20, and then incubated overnight with primary antibody at 4° C. The dilutions of the primary antibodies were as follows: 1:2000 for anti-HCV NS5A and anti-GAPDH antibodies, and 1:5000 for anti-HCV core antibody. The membranes were then incubated for 1 hour with horseradish peroxidase-conjugated secondary antibodies (dilution 1:10,000). Finally, the bound antibodies were visualized with the ECL-Plus chemiluminescence system according to the manufacturer's protocol. A Kodak 1DV3.6 computer-based imaging system (Rochester, N.Y.) was used to measure the relative optical density of each specific band obtained after Western blotting. Data are expressed as percentages of the controls (corresponding to the value obtained with the vehicle-treated cells), which were assigned values of one. […]
To evaluate whether ZnMP-mediated degradation of NS5A may play a role in inhibiting HCV replication, Con1 full-length HCV replicon Huh-7.5 cells were treated with different concentrations of ZnMP for 24 hours. […] HCV virus RNA was quantified by qRT-PCR, and the levels of HCV core, NS5A and GAPDH protein were measured by Western blots. […]

HCV core protein [3] = conditions: J6/JFH1 RNA transfected Huh-7.5 cells
Protocol: In brief, total proteins (30-50 μg) were separated on 4-15% gradient SDS-PAGE gels. After electrophoretic transfer onto ImmunBlot PVDF membrane, membranes were blocked for 1 hour in PBS containing 5% nonfat dry milk and 0.1% Tween-20, and then incubated overnight with primary antibody at 4° C. The dilutions of the primary antibodies were as follows: 1:2000 for anti-HCV NS5A and anti-GAPDH antibodies, and 1:5000 for anti-HCV core antibody. The membranes were then incubated for 1 hour with horseradish peroxidase-conjugated secondary antibodies (dilution 1:10,000). Finally, the bound antibodies were visualized with the ECL-Plus chemiluminescence system according to the manufacturer's protocol. A Kodak 1DV3.6 computer-based imaging system (Rochester, N.Y.) was used to measure the relative optical density of each specific band obtained after Western blotting. Data are expressed as percentages of the controls (corresponding to the value obtained with the vehicle-treated cells), which were assigned values of one.
For HCV RNA transfection, Huh-7.5 cells were plated in 24-well plates one day prior to transfection and transfected at 70˜80% confluence. […]
Huh-7.5 cells were transfected with 2 μg/well of J6/JFH1 RNA by Lipofectamine 2000. […] HCV RNA was quantified by qRT-PCR, and HCV core, NS5A and GAPDH protein levels were measured by Western blots.

HCV NS5A protein [4] = target: T1, HCV NS5A protein (Hepatitis C virus genotype 1b, UniProt Q9WMX2); test: NS5A protein levels in Huh-7/T7 cells transfected with pFK-Con1/GND; type: cell-based; set-up: processed into structural (C, E1, E2) and nonstructural (NS2, NS3, NS4A, NS4B, NS5A and NS5B) proteins; expressed in transfected cells; host or cells: Huh-7/T7 cells transiently transfected with pFK-Con1/GND; conditions: 24 h, FIG. 7C
Description: as §4, §3

HCV NS5A protein [5] = target: T1, HCV NS5A protein; test: NS5A protein levels by Western blot in 9-13 cells; type: cell-based; set-up: processed into structural (C, E1, E2) and nonstructural (NS2, NS3, NS4A, NS4B, NS5A and NS5B) proteins; expressed in transfected cells; host or cells: 9-13 cells (human hepatoma cells with a replicating HCV NS3-NS5B region)
Description: as §1, §4

HCV NS5A protein [6] = target: T1, HCV NS5A protein; test: NS5A protein half-life determination with cycloheximide in 9-13 cells; type: cell-based; set-up: processed into structural (C, E1, E2) and nonstructural (NS2, NS3, NS4A, NS4B, NS5A and NS5B) proteins; expressed in transfected cells; host or cells: 9-13 cells (human hepatoma cells with a replicating HCV NS3-NS5B region); conditions: 100 ug/mL CHX, 10 μM ZnMP, 0-4 h, FIGS. 4A, 4B
Protocol: 9-13 cells were incubated with 100 ug/mL cycloheximide (CHX) in the presence or absence of 10 uM ZnMP. Western blots were performed using anti-HCV NS5A and anti-GAPDH antibodies. Band intensities of Western blots were measured by densitometric analysis. GAPDH bands were used as internal controls to correct for protein loadings.
9-13 cells were treated with 100 ug/mL cycloheximide (CHX) and with or without 10 μM ZnMP for the indicated periods (0, 0.5, 1, 2, 4 h), and then cells were harvested and total proteins were isolated. Proteins were separated on 4-15% SDS-polyacrylamide gel, transferred to a PVDF membrane, anti-HCV NS5A or GAPDH specific antibodies were used to detect NS5A or GAPDH protein levels by Western blot. […] The band intensity of NS5A from untreated sample (0 h) was set at 1.

HCV NS5A protein [7] = target: T1, HCV NS5A protein; test: polyubiquitination of NS5A by immunoprecipitation and immunoblot in 9-13 cells; type: cell-based; set-up: processed into structural (C, E1, E2) and nonstructural (NS2, NS3, NS4A, NS4B, NS5A and NS5B) proteins; expressed in transfected cells; host or cells: 9-13 cells (human hepatoma cells with a replicating HCV NS3-NS5B region)
Protocol: Immunoprecipitation was carried out according to the Manufacturer's protocol. Briefly, cells were harvested in cold radioimmunoprecipitation assay (RIPA) buffer (50 mM Tris-HC1 [pH 7.4], 150 mM NaCl, 1 mM EDTA, 0.25% sodium deoxycholate, 1% IGEPAL CA-630, 1 mM PMSF, 1 mM NaF, 1 mM Na3VO4 and 1 μg/ml each of aprotinin, leupeptin, and pepstatin). The samples were pre-cleared with Protein A/G Agarose for 10 min at 4° C. and subsequently incubated while gently rotating at 4° C. overnight with primary antibody, followed by Protein A/G beads for 1 h at 4° C. Beads were spun down and washed twice with RIPA buffer. Protein samples were separated by electrophoresis on 4-15% SDS-PAGE gels, and transferred to PVDF membrane, conjugated ubiquitin was detected as described for Western blot analysis using anti-ubiquitin antibody.
This Example investigates whether ZnMP induces polyubquitination of NS5A to gain insight into the mechanism by which ZnMP mediates degradation of NS5A protein. 9-13 cells were treated without or with 10 μM ZnMP for 4 h. Total proteins were extracted for subsequent Western blot or immunoprecipitation analysis. Immunoprecipitation was carried out using anti-HCV NS5A antibody. Ubiquitin conjugation of NS5A [polyubiquitinated NS5A (Ub)n-NS5A]was examined with immunoprecipitation using an anti-HCV NS5A antibody and immunoblot using an anti-ubiquitin antibody. […] In FIG. 6B, ubiquitination of NS5A following ZnMP treatment, or vehicle (DMSO) only was compared. The positions of molecular mass markers (in kilodaltons) are indicated to the left of the gel. The bracket indicates polyubiquitinated NS5A. Asterisks indicate cross-reacting immunoglobulin heavy chain. […] These bands may represent polyubiquitinated NS5A.

T1 sequence (Q9WMX2 1973-2419): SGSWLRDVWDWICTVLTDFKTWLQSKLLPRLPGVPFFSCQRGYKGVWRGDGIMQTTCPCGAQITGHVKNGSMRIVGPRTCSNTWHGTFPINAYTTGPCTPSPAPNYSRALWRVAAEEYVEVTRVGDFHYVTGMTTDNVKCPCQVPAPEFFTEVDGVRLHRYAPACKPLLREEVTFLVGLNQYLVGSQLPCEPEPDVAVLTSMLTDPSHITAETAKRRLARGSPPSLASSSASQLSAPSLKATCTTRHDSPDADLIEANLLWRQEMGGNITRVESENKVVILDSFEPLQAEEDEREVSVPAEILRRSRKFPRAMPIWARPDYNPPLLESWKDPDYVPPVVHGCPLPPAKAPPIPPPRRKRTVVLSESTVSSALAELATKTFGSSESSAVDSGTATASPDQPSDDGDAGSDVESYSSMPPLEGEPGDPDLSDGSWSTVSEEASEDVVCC

## CCC1=C(C)c2cc3[nH]c(cc4nc(cc5[n-]c(cc1n2)c(C)c5CCC(=O)[O-])C(CCC(=O)[O-])=C4C)c(C)c3CC.[H+].[Zn+2] [ZnMP, Zinc mesoporphyrin]
HCV replicon RNA
  viral RNA levels: dose-dependent reduction
HCV core, NS5A
  HCV protein levels: dose-dependent reduction
J6/JFH1 HCV RNA
  decrease of HCV RNA levels: ~70%
J6/JFH1 HCV
  decrease of HCV RNA levels: ~90%
HCV
  anti-viral activity (summary statement): display anti-viral activity
HCV core protein [1]
  HCV core protein levels: no detectable effects
HCV core protein [2]
  HCV core protein levels: reduction of core
HCV core protein [3]; 4 h
  core protein levels: not affected
HCV core protein [3]; 24 h
  core protein levels: decrease
HCV NS5A protein [4]
  NS5A protein levels: markedly decreased
HCV NS5A protein [5]; 9-13 cells, 10 μM ZnMP alone, 10 and 24 hours, FIG. 9B
  NS5A protein levels: slightly increased
HCV NS5A protein [5]; 9-13 cells, 10 μM ZnMP alone, as little as 2 hours, FIG. 9B
  NS5A protein levels: rapid and marked down-regulation
HCV NS5A protein [5]; 9-13 cells, 10 μM, 0, 2, 4, 6 h, FIG. 2B
  NS5A protein levels, time course: markedly and rapidly decreased
HCV NS5A protein [5]; 9-13 cells, 10 μM, 4 h, FIG. 6A
  NS5A protein levels before immunoprecipitation: down-regulation
HCV NS5A protein [5]; 9-13 cells, 10 μM, 4 hours, FIG. 2A
  NS5A protein levels: decreased
HCV NS5A protein [5]; 9-13 cells, ZnMP 0, 1, 5, 10 μM, 4 hours, FIG. 1A
  NS5A protein levels: marked decrease
HCV NS5A protein [5]; about 1 μM, 4 hours, stated for bar graphs of FIGS. 1A/1B (9-13 and Con1 cells)
  reduction of NS5A protein levels: about 60%
HCV NS5A protein [6]
  NS5A protein levels in presence of cycloheximide: greatly and rapidly reduced
HCV NS5A protein [7]
  polyubquitination of NS5A (summary statement): induce polyubquitination
HCV NS5A protein [7]; 9-13 cells, 10 μM, 4 h, FIG. 6B
  polyubquitination of NS5A: induce polyubquitination
